Where a name gives a salt, the structure may show the parent alone.
Columns and labels:
[1] = system: 9,11-azo PGH2 induced aggregation of rabbit platelet; assay: Effect on 9,11-azo PGH2 induced aggregation of rabbit platelet in vitro; format: cell-based; conditions: Oryctolagus cuniculus; rabbit platelet rich plasma, in vitro, 9,11-azo PGH2 (final 1.0 μM), 37° C.; read-out: IC50 (Inhibition concentration of platelet aggregation by 50%)
Source text: (§1) In the following tests, the used 9, 11-azo PGH2 and 9,11-methanoepoxy PGH2 (U46619) are characterized pharmacologically as TXA2 mimetic agents and widely used for evaluating TXA2 antagonism of test compounds (for example, vide The Journal of Pharmacology and Experimental Therapeutics Vol. 234, pp 435-441).
Test 1 (Effect on 9,11-azo PGH2 induced aggregation of rabbit platelet in vitro) (a) Test method
In the in vitro experiments, the blood was collected from the carotid artery of rabbits into plastic vessels containing 0.1 volume of 3.8% aqueous sodium citrate. Platelet rich plasma (PRP) was prepared by centrifugation at 150 g for 15 minutes. Platelet aggregation was investigated using the turbidometric method with an aggregometer (NKK HEMATRACER 1). To the 225 μl of PRP, 25 μl of test compound solution was added, and then stirred at 1000 rpm for 2 minutes at 37° C. To the solution, 5 μl of 9,11-azo PGH2 (final 1.0 μM) was added as an aggregating inducer. IC50 (Inhibition concentration of platelet aggregation by 50%) were graphically determined.

[2] = system: 9,11-methanoepoxy PGH2 induced platelet aggregation; assay: Effect on 9,11-methanoepoxy PGH2 (U46619) induced platelet aggregation ex vivo; format: in vivo, male Hartley strain guinea-pigs; conditions: Cavia porcellus, guinea-pig, oral administration 0.032 mg/kg, 1 hour before blood collection, U46619 0.5 μM
Source text: as §1
Test 2. (Effect on 9,11-methanoepoxy PGH2 induced platelet aggregation ex vivo)
In the ex vivo experiments, male Hartley strain guinea-pigs weighing about 300 g were used after overnight fasting. Animals received an oral administration of test compound (0.032 mg/kg) or vehicle 1 hour before the blood collection from abdominal artery PRP was prepared as described above, and platelet aggregation was induced by adding 5 μl of 9,11-methanoepoxy PGH2 (U46619, 0.5 μM) to 250 μl of PRP.

| IC50 [1] [nM] | SMILES | inhibition at 0.032 mg/kg [2] [%] |
| --- | --- | --- |
| 85 | O=C(O)CCCC=C[C@@H]1C[C@@H](NS(=O)(=O)c2ccc(Cl)cc2)CN1S(=O)(=O)c1ccc(Cl)cc1 [Test compound (1), Sodium salt of (2S,4R)-2-[(E and Z)-5-carboxy-1-pentenyl]-1-(4-chlorophenylsulfonyl)-4-(4-chlorophenylsulfonylamino)pyrrolidine] | 94.2 |
| 55 | O=C(O)CCC/C=C\[C@@H]1C[C@@H](NS(=O)(=O)c2ccc(Cl)cc2)CN1S(=O)(=O)c1ccc(Cl)cc1 [Test compound (2), (2S,4R)-2-[(Z)-5-Carboxy-1-pentenyl]-1-(4-chlorophenylsulfonyl)-4-(4-chlorophenylsulfonylamino)pyrrolidine] | 100 |

Source: US4916152A, “Pyrrolidine derivatives as antiasthmatics” (Fujisawa Pharmaceutical Co., Ltd., priority 1987, dated 1990)
